Measurements reported in ChEMBL document CHEMBL1154128, “Characterization of the microbial community and polyketide biosynthetic potential in the palmerolide-producing tunicate Synoicum adareanum” (2008).

Tested on: UACC-62
Assay: Cytotoxicity against human UACC62 cells
Assay type: functional
Settings: read-out: LC50 (the source's name)

Q: `CC(C)=CC(=O)N/C=C/C(C)=C/[C@@H](C)[C@H]1C/C(C)=C/C=C/CC[C@H](OC(N)=O)[C@@H](O)/C=C/[C@@H](O)CCC/C=C/C(=O)O1` [PALMEROLIDE A] was tested. Which CC50 did it give?
A: 0.018 µM
